Reference: patent US6410265B1, “Gene encoding a putive efflux protein for solvents/antibiotics in Pseudomonas mendocina” (priority 1997, dated 2002)

How the values were obtained:
4.5X(−) Pseudomonas = assay: Antibiotic resistance: colony growth on LB/agar plates with antibiotics; format: cell-based, Pseudomonas mendocina; conditions: strain with disrupted 4.5X gene; agar plates, concentration ranging from 5 1μg/mL to 25 μg/mL
Description: (§1) The transformed Pseudomonas mendocina KR-1, carrying the disrupted putative efflux 4.5X gene, was grown on the agar plates in the presence of different antibiotics or high concentration of PHBA. The growth of the strain with the disrupted 4.5X gene was compared with that of wild type Pseudomonas mendocina strain KR-1.
The colonies were innoculated on the LB plates with different antibiotics separately. The antibiotics include Amp (50 μg/mL), Strep (10 μg/mL), Tec (10 μg/mL), Kam (25 μg/mL) and CM (5 μg/mL, 15 μg/mL and 25 μg/mL). The plates were kept at 30° C. for 48 hour. The growth of the colonies was scored based on the growth of wildtype strain KR-1 and the growth of these colonies on LB plates.

4.5X(−) = assay: Sensitivity to PHBA: cell growth in liquid minimal medium by optical density; format: cell-based, Pseudomonas mendocina; conditions: in the presence of 50 mM PHBA, same condition for both strains
Description: as §1
The cells were innoculated in the liquid medium consisting of minimal medium (in 1 L solution, sodium phosphate, monobasic, 1.85 g; potassium phosphate, dibasic, 5.84 g; ammonia sulphate, 1.5 g; yeast extract, 500 mg; 1x minerals, 2% glucose and 50 mM PHBA). The cultures were kept at 30° C. in a shaker incubator for 48 hours. The cell growth was monitored by optical density (O.D) measurements using a spectrophotometer.

O=C(N[C@H](CO)[C@H](O)c1ccc([N+](=O)[O-])cc1)C(Cl)Cl [CM, choromphenecol] was tested, and the “Growth on plates with chloramphenicol” value (4.5X(−) Pseudomonas) was “unable to grow”.

With O=C(O)c1ccc(O)cc1 [PHBA, p-hydroxybenzoic acid] the “Growth of 4.5X(−) strain relative to wildtype strain” value (4.5X(−)) was “four times slower”.
